In DBAASP:
In brackets after ≈: the same amount, converted by molar mass. Several values for one entry are separate records, joined by “and”; a condition that tells them apart may be missing. Equal entries are not always repeated. Blank lines part the entries; values can stand above or below the compound they belong to.

How the values were obtained:
Test in all cases: ≥ marks a high value that may be exact or a test limit, other limits are often not marked, values filed in µg/mL are converted to µM
[1] = system: Staphylococcus epidermidis ATCC 12228
[2] = system: Pseudomonas aeruginosa ATCC 9027
[3] = system: Micrococcus luteus ATCC 4698
[4] = system: Bacillus subtilis ATCC 6633
[5] = system: Staphylococcus aureus KCTC 3881
[6] = system: Klebsiella pneumoniae ATCC 10031
[7] = system: Proteus mirabilis ATCC 25933
Escherichia coli AS1.349 = system: Escherichia coli AS1.349
Bacillus cereus = system: Bacillus cereus
Candida albicans = system: Candida albicans
[8] = system: Shigella dysenteriae ATCC 9752
Pseudomonas aeruginosa = system: Pseudomonas aeruginosa
[9] = system: Staphylococcus aureus AS1.72
Lactococcus lactis = system: Lactococcus lactis
[10] = system: Escherichia coli KCTC 2433
[11] = system: Candida albicans ATCC 36232
[12] = system: Salmonella enterica serovar Typhimurium
Cryptococcus neoformans = system: Cryptococcus neoformans
Klebsiella pneumoniae = system: Klebsiella pneumoniae
[13] = system: Escherichia coli ATCC 25922
Escherichia coli = system: Escherichia coli
Candida tropicalis = system: Candida tropicalis
[14] = system: Staphylococcus aureus ATCC 25923
[15] = system: Salmonella enterica subsp. enterica serovar Enteritidis
[16] = system: Klebsiella pneumoniae ATCC 13883
[17] = system: Salmonella enterica subsp. enterica serovar Typhimurium ATCC 14028
[18] = system: Cryptococcus neoformans ATCC 52817
Bacillus megaterium Bm11 = system: Bacillus megaterium Bm11
Streptococcus equinus = system: Streptococcus equinus
[19] = system: Cryptococcus neoformans ATCC 90113
Escherichia coli ML-35 = system: Escherichia coli ML-35
[20] = system: Pseudomonas aeruginosa ATCC 10145
[21] = system: Pseudomonas aeruginosa ATCC 27853
Candida parapsilosis = system: Candida parapsilosis
[22] = system: Serratia marcescens ATCC 8100
[23] = system: Staphylococcus aureus ATCC 29213
[24] = system: Pseudomonas aeruginosa H374
[25] = system: Pseudomonas aeruginosa H744
[26] = system: Burkholderia cepacia ATCC 25416
[27] = system: Pseudomonas aeruginosa K799
[28] = system: Salmonella enterica subsp. enterica serovar Typhimurium ATCC 14028s
[29] = system: Pseudomonas aeruginosa H547
Escherichia coli UB1005 = system: Escherichia coli UB1005
[30] = system: Pseudomonas aeruginosa Z61
[31] = system: Pseudomonas aeruginosa H1001
[32] = system: Bacillus subtilis KCCM 11495
[33] = system: Escherichia coli KCCM 11569

MIC [1]: 18.1 µM (≈ 60 µg/mL)
MIC [2]: > 30.1 µM
MIC [3]: 1.88 µM (≈ 6.25 µg/mL)
MIC [4]: 15.1 µM (≈ 50 µg/mL)
MIC [5]: 9.04 µM (≈ 30 µg/mL)
MIC [6]: 4.52 µM (≈ 15 µg/mL)
MIC [7]: 30.1 µM (≈ 99.9 µg/mL)
MIC (Escherichia coli AS1.349): ≥ 100 µM
MIC (Bacillus cereus): ≥ 37.5 µM
MIC (Candida albicans): 50 µM (≈ 166 µg/mL)
MIC [8]: 18.1 µM (≈ 60 µg/mL)
MIC (Pseudomonas aeruginosa): > 100 µM
MIC [9]: ≥ 37.5 µM
MIC (Lactococcus lactis): ≥ 37.5 µM
MIC [10]: 4.52 µM (≈ 15 µg/mL)
MIC [11]: 30.1 µM (≈ 99.9 µg/mL)
SMILES: CC(C)C[C@H](NC(=O)CN)C(=O)N[C@@H](Cc1ccccc1)C(=O)N[C@@H](CC(=O)O)C(=O)N[C@H](C(=O)N[C@H](C(=O)N[C@@H](CCCCN)C(=O)NCC(=O)N[C@H](C(=O)N[C@@H](CC(C)C)C(=O)N[C@@H](CCCCN)C(=O)NCC(=O)N[C@H](C(=O)NCC(=O)N[C@@H](CCCCN)C(=O)N[C@@H](CC(N)=O)C(=O)N[C@H](C(=O)N[C@@H](C)C(=O)NCC(=O)N[C@@H](CO)C(=O)N[C@@H](CC(C)C)C(=O)N[C@@H](CC(C)C)C(=O)N[C@@H](CCC(=O)O)C(=O)N[C@@H](CCC(N)=O)C(=O)N[C@@H](CC(C)C)C(=O)N[C@@H](CCCCN)C(=O)N[C@H]1CSSC[C@@H](C(=O)O)NC(=O)CNC(=O)CNC(=O)[C@H](CO)NC(=O)[C@H](CC(C)C)NC(=O)[C@H](CCCCN)NC1=O)C(C)C)C(C)C)C(C)C)C(C)C)C(C)C [GLFDVVKGVLKGVGKNVAGSLLEQLKCKLSGGC]

MIC [12]: 0.9 µM (≈ 2.83 µg/mL)
MIC (Cryptococcus neoformans): 1.91 µM and 3.98 µM
MIC (Klebsiella pneumoniae): 1.91 µM and 0.9 µM
MIC [13]: 1.1 µM (≈ 3.46 µg/mL)
MIC (Escherichia coli): 1.27 µM (≈ 4 µg/mL)
MIC (Candida tropicalis): 31.8 µM (≈ 100 µg/mL)
MIC [14]: 7.96 µM (≈ 25 µg/mL)
MIC [1]: 1.91 µM (≈ 6 µg/mL)
MIC [15]: 1.91 µM (≈ 6 µg/mL)
MIC [16]: 0.78 µM (≈ 2.45 µg/mL)
MIC [17]: 1.91 µM and 0.637 µM
MIC [18]: 3.98 µM and 1.91 µM
MIC (Bacillus megaterium Bm11): 3.98 µM (≈ 12.5 µg/mL)
MIC (Streptococcus equinus): 7.96 µM (≈ 25 µg/mL)
MIC [19]: 3.98 µM and 1.91 µM
MIC (Escherichia coli ML-35): 0.955 µM (≈ 3 µg/mL)
MIC (Candida albicans): > 31.8 µM
MIC [20]: 1.27 µM (≈ 4 µg/mL)
MIC [21]: 3.98 µM (≈ 12.5 µg/mL)
MIC (Candida parapsilosis): 31.8 µM (≈ 100 µg/mL)
MIC (Pseudomonas aeruginosa): 0.9 µM (≈ 2.83 µg/mL)
MIC [22]: 3.98 µM (≈ 12.5 µg/mL)
MIC [23]: > 10.2 µM
SMILES: CC[C@H](C)[C@H](NC(=O)[C@H](CCCCN)NC(=O)[C@H](CCCN=C(N)N)NC(=O)[C@H](CCCN=C(N)N)NC(=O)[C@@H]1CCCN1C(=O)[C@H](CC(C)C)NC(=O)[C@H](CC(C)C)NC(=O)[C@@H](NC(=O)[C@H](CCCN=C(N)N)NC(=O)[C@H](CCSC)NC(=O)[C@H](CCCN=C(N)N)NC(=O)[C@H](CC(C)C)NC(=O)[C@H](Cc1ccccc1)NC(=O)[C@H](CO)NC(=O)[C@H](CCCCN)NC(=O)[C@H](C)NC(=O)[C@H](CC(C)C)NC(=O)[C@H](CCCN=C(N)N)NC(=O)CNC(=O)[C@H](Cc1ccccc1)NC(=O)[C@H](CCCN=C(N)N)NC(=O)[C@@H](N)CCCCN)[C@@H](C)CC)C(=O)N[C@@H](CC(C)C)C(=O)N[C@@H](CC(C)C)C(=O)N[C@@H](C)C(=O)N[C@@H](CO)C(=O)O [KRFGRLAKSFLRMRILLPRRKILLAS]

MIC [24]: 2.73 µM (≈ 8 µg/mL)
MIC [25]: 1.36 µM (≈ 4 µg/mL)
MIC [26]: 21.8 µM (≈ 64 µg/mL)
MIC [27]: 1.71 µM (≈ 5 µg/mL)
MIC [28]: 1.02 µM (≈ 3 µg/mL)
MIC [21]: 4 µM (≈ 11.7 µg/mL)
MIC [29]: 2.73 µM (≈ 8 µg/mL)
MIC (Escherichia coli UB1005): 0.682 µM (≈ 2 µg/mL)
MIC [30]: 1.02 µM (≈ 3 µg/mL)
SMILES: CC[C@H](C)[C@H](NC(=O)[C@H](CC(C)C)NC(=O)[C@@H]1CCCN1C(=O)[C@H](CCCCN)NC(=O)[C@H](C)NC(=O)[C@@H](NC(=O)[C@@H](NC(=O)[C@@H](NC(=O)[C@@H](NC(=O)[C@H](CCCCN)NC(=O)[C@H](CCCCN)NC(=O)[C@H](CC(C)C)NC(=O)[C@@H](NC(=O)[C@H](CO)NC(=O)[C@@H](NC(=O)[C@H](CC(C)C)NC(=O)[C@H](CCCCN)NC(=O)[C@H](CCCCN)NC(=O)[C@@H](NC(=O)[C@H](Cc1ccccc1)NC(=O)[C@H](CO)NC(=O)[C@H](CCCCN)NC(=O)[C@H](Cc1c[nH]c2ccccc12)NC(=O)[C@@H](N)CCCCN)[C@@H](C)CC)[C@@H](C)O)C(C)C)C(C)C)C(C)C)[C@@H](C)O)[C@@H](C)O)C(=O)N[C@@H](CO)C(=O)N[C@@H](CO)C(=O)O [KWKSFIKKLTSVLKKVVTTAKPLISS]

MIC [31]: 1.2 µM (≈ 2 µg/mL)
SMILES: CC[C@H](C)[C@H](NC(=O)[C@H](CCCCN)NC(=O)[C@H](Cc1c[nH]c2ccccc12)NC(=O)[C@H](CCCN=C(N)N)NC(=O)[C@@H](N)CCCN=C(N)N)C(=O)N[C@H](C(=O)N[C@H](C(=O)N[C@H](C(=O)N[C@@H](CCCN=C(N)N)C(=O)N[C@@H](Cc1c[nH]c2ccccc12)C(=O)N[C@@H](CCCCN)C(=O)N[C@@H](CCCCN)C(N)=O)[C@@H](C)CC)C(C)C)C(C)C [RRWKIVVIRWKK]

MIC [32]: ≥ 46 µM
MIC [33]: ≥ 46 µM
SMILES: CC(C)C[C@H](NC(=O)CNC(=O)[C@H](Cc1cnc[nH]1)NC(=O)[C@H](Cc1cnc[nH]1)NC(=O)[C@H](CC(C)C)NC(=O)[C@H](CC(C)C)NC(=O)[C@H](C)NC(=O)[C@H](CC(N)=O)NC(=O)[C@H](CC(C)C)NC(=O)[C@@H](N)Cc1c[nH]c2ccccc12)C(=O)N[C@@H](CC(N)=O)C(=O)N[C@@H](CS)C(N)=O [WLNALLHHGLNC]
